# Measurements published in patent publication US11059875B2, “Composition for preventing or treating cardiofaciocutaneous syndrome” (Korea Advanced Institute of Science and Technology, priority 2018, dated 2021).
# Entries after “also recorded” stand apart in the source; their conditions may differ.
# Columns and labels:
# Format in all cases: cell-based, human
# [1] = tested on: osteoblasts differentiated from CFC-MSCs; test: ALP enzyme activity (ALP kit staining) in osteoblasts differentiated from CFC-MSCs; conditions: treated on day 1 for 24 hours (U0126 5 μM, SB-431542 5 μM, BMP4 50 ng/ml), measured on 7th day of differentiation, FIG. 13
# Procedure: (§1) To differentiate into osteoblasts, the MSCs were treated with 0.25% trypsin-EDTA at 37° C. for 2 minutes and separated from the culture dish. The cells were spread on a 4-well culture dish at the density of 2.5×10^4 cells/cm^2, which were cultured in MSC culture medium at 37° C. for 3 days until the cells were full. 3 days later, the medium was replaced with STEMPRO osteogenesis differentiation Medium (Invitrogen), and the medium was replaced every three days. The activity of ALP, which is an enzyme essential for the formation of hydroxyapatite, a major component of bone mineral, and an indicator of osteoblast differentiation, was investigated at 7 day intervals by using an ALP kit (Leucocyte Alkaline Phosphatase Kit, Sigma-Aldrich). […] The cells were washed with distilled water twice and the degree of color change into red was measured to investigate the calcium ion deposition.
# (§2) Particularly, the differentiation of CFC-MSCs into osteoblasts was induced by the same manner as described in Experimental Example <2-2>. […] ALP enzyme activity was measured on the 7th day of the differentiation, and alizarin red S staining was performed on the 14th day of the differentiation by the same manner as described in Experimental Example <2-2>. […] After washing the cells with distilled water twice, the amount of calcium deposition was evaluated by the degree of darkening.
# [2] = tested on: osteoblasts differentiated from CFC-MSCs; test: Bone mineral deposition (alizarin red S and von Kossa staining) in osteoblasts differentiated from CFC-MSCs; conditions: treated on day 1 for 24 hours (U0126 5 μM, SB-431542 5 μM, BMP4 50 ng/ml), alizarin red S day 14, von Kossa day 21, FIG. 14
# Procedure: as §1, §2
# [3] = tested on: osteoblasts differentiated from CFC-iPSCs; test: Differentiation of CFC syndrome patient derived iPSCs into osteoblasts through mesenchymal stem cells; conditions: CFC patient iPSC-derived cells; FIG. 13 to FIG. 15
# Excerpt: […] The iPSCs derived from wild type (WT) individuals and the iPSCs derived from CFC syndrome patients were induced to be differentiated in vitro for about 30 days by referring to the protocol proposed in a previous paper (Mahmood, Harkness et al. 2010). Particularly, CFC-iPSC colony was divided into 4 to 9 sections (0.5 mm×0.5 mm/each section) by using a tissue chopper provided from Mickle Laboratory Engineering Co. The sections were treated with 10 mg/ml of dispase at 37° C. for 4 minutes and then the sections were detached from the cell culture dish. The separated cell sections were transferred in a Petri dish, followed by culture in EB medium (embryoid body differentiation medium), the Dulbecco's modified Eagle's medium (DMEM/F12) supplemented with 10% serum replacement (SR), 1% penicillin-streptomycin and 1% non-essential amino acids, for a day. […]
# To differentiate into osteoblasts, the MSCs were treated with 0.25% trypsin-EDTA at 37° C. for 2 minutes and separated from the culture dish. […] The cells were washed with distilled water twice and the degree of color change into red was measured to investigate the calcium ion deposition. […]
Molecule,ALP enzyme activity [1],bone mineral deposition [2],differentiation ability into osteoblasts [3]
NC(=O)c1ccc(-c2nc(-c3ccc4c(c3)OCO4)c(-c3ccccn3)[nH]2)cc1 [SB-431542],increase,increase,improved; also recorded: efficient in improving the differentiation ability
"BMP4: recombinant human bone morphogenic protein 4, BMP signaling pathway activator, SEQ. ID. NO: 13 (R&D systems) (protein, listed as Homo sapiens) MIPGNRMLMVVLLCQVLLGGASHASLIPETGKKKVAEIQGHAGGRRSGQSHELLRDFEATLLQMFGLRRRPQPSKSAVIPDYMRDLYRLQSGEEEEEQIHSTGLEYPERPASRANTVRSFHHEEHLENIPGTSENSAFRFLFNLSSIPENEVISSAELRLFREQVDQGPDWERGFHRINIYEVMKPPAEVVPGHLITRLLDTRLVHHNVTRWETFDVSPAVLRWTREKQPNYGLAIEVTHLHQTRTHQGQHVRISRSLPQGSGNWAQLRPLLVTFGHDGRGHALTRRRRAKRSPKHHSQRARKKNKNCRRHSLYVDFSDVGWNDWIVAPPGYQAFYCHGDCPFPLADHLNSTNHAIVQTLVNSVNSSIPKACCVPTELSAISMLYLDEYDKVVLKNYQEMVVEGCGCR",increase,increase,efficient in improving the differentiation ability
